Measurements published in patent US8071654B2, “Inhibitors of thromboxane formation and action” (priority 2000, dated 2011).

Assays:
COX-1 = molecular target: T1, COX-1 (Ovis aries, UniProt P05979); assay: COX-1 activity, 14C-arachidonic acid conversion, TLC; type: biochemical; details: for COX-1 enzyme activity (% of control values, mean ± SD): n = 3
T1 construct: purchased Cayman Chemicals
T1 sequence (P05979 25-600): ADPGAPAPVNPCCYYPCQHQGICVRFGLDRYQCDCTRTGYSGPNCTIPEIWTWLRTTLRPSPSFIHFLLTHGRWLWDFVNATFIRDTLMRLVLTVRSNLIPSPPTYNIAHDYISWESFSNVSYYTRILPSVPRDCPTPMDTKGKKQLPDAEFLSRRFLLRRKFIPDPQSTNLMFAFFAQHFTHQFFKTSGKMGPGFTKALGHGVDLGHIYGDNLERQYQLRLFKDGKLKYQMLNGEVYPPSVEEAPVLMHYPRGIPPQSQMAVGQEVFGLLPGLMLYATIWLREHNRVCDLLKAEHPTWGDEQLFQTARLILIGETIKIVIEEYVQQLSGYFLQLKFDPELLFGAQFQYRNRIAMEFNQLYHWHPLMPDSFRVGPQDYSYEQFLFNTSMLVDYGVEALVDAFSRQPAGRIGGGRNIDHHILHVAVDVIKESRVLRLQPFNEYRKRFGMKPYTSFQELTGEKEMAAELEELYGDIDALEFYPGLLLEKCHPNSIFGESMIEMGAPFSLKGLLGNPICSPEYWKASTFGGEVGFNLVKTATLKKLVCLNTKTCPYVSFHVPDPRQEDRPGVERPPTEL
Experimental: COX-1 and COX-2 enzyme preparations were purchased from Cayman Chemicals. Preliminary studies established that 40 U of COX-1 or COX-2 could convert about 70% of ^14C-arachidonic acid (spec. act. 55 mCi/mmol, Ontario Isotopes, Ontario, Canada; 100,000 cpm were diluted with 0.5 μg unlabeled arachidonic acid (Cayman Chemicals)/1 ml assay) into products in vitro. Different amounts of PBT-3 (10 μg and 20 μg) were added and the conversion of AA into products was assessed during a 10 min reaction in 1 ml phosphate buffer at 37°. After extraction, products were assessed by TLC (silica gel G, ethyl acetate/acetic acid, 99/1, v/v). After development, the TLC plates were scanned for radioactive products with a Berthold TLC radiochromatogram scanner and the radioactivity was quantified by scraping zones of silica gel, placing in scintillation vials, elution with 1 ml methanol and addition of scintillation medium. Radioactivity was determined by conventional counting in a beta scintillation counter.

TP receptor [1] = molecular target: T2, TP receptor (Homo sapiens, UniProt P21731); assay: platelet aggregation evoked by I-BOP; type: cell-based; details: I-BOP 2 ng/0.5 ml; read-out: IC50 for inhibition of aggregation evoked by I-BOP
T2 construct: endogenous in cells; host or cells: washed human platelets
T2 sequence (P21731 1-343): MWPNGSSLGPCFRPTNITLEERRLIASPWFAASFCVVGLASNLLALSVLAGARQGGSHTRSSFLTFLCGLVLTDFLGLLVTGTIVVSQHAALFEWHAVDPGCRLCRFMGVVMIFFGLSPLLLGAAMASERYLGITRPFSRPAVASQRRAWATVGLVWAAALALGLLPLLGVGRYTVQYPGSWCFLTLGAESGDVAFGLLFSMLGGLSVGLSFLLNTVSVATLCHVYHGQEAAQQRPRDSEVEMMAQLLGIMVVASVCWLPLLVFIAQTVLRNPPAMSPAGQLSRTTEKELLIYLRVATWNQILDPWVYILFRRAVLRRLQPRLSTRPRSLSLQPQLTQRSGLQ
Experimental: Venous blood was obtained from healthy human subjects who had not taken NSAID's for at least two weeks. Blood was drawn into plastic syringes containing ACD. It was immediately centrifuged at 23° at 200×g for 15 min. The platelet rich plasma was transferred into fresh plastic tubes and centrifuged at 400×g for 5 min. The supernatant was discarded and the platelet sediment was resuspended in fresh medium containing NaCl (137 mM), KCl (1 mM), NaH2PO4, glucose (5.5 mM), HEPES (20 mM) and CaCl2 (1 mM) and allowed to stand at room temperature for 30 min. A platelet count was made, which determined the volume of platelet suspension needed to make up 350×10^6 cells for each measurement. The aliquot was diluted with medium to make 0.5 ml/assay/cuvette. […]
0.5 ml of platelet suspension was added to siliconized glass tubes (four at a time) and heated with magnetic stirring to 37° for 1 min in a platelet aggregometer (PAP-4C). […] The response was recorded for the next 5 min. […] In experiments where the conversion of tritiated PGH2 was to be monitored, the procedure described above was repeated with tritiated PGH2 instead of unlabeled PGH2. After extraction of the sample as described above, the radiolabeled compounds were analyzed by TLC. Dose response curves for varying amounts of test compounds were generated and the data expressed as % inhibition of collagen-induced platelet aggregation. […]

TP receptor [2] = molecular target: T2, TP receptor; assay: platelet aggregation evoked by the TxA2 mimic U46619; type: cell-based
Experimental: Venous blood was obtained from healthy human subjects who had not taken NSAID's for at least two weeks. Blood was drawn into plastic syringes containing ACD. It was immediately centrifuged at 23° at 200×g for 15 min. The platelet rich plasma was transferred into fresh plastic tubes and centrifuged at 400×g for 5 min. The supernatant was discarded and the platelet sediment was resuspended in fresh medium containing NaCl (137 mM), KCl (1 mM), NaH2PO4, glucose (5.5 mM), HEPES (20 mM) and CaCl2 (1 mM) and allowed to stand at room temperature for 30 min. A platelet count was made, which determined the volume of platelet suspension needed to make up 350×10^6 cells for each measurement. The aliquot was diluted with medium to make 0.5 ml/assay/cuvette. Appropriate calibration of the aggregometer (PAP-4C) for 0% and 100% transmission was carried out through the use of a sample of platelet suspension and cell-free medium (37).
(§1) 0.5 ml of platelet suspension was added to siliconized glass tubes (four at a time) and heated with magnetic stirring to 37° for 1 min in a platelet aggregometer (PAP-4C). Either vehicle alone (ethanol, 1 μl) or hepoxilin analog was then added, followed two min later by agonist (collagen: 2 μg; PGH2: 100 ng/0.5 ml; U46619: 10 ng/0.5 ml or I-BOP: 2 ng/0.5 ml). The response was recorded for the next 5 min. In experiments where analysis of TxB2 and HHT were to be made by HPLC, the platelet suspension at the end of the experiment was diluted with ethyl acetate, 100 ng of prostaglandin B1 was added as internal standard, and the mixture was acidified to pH 3 with 0.1 N HCl. After centrifugation, the organic layer was separated, washed twice with water to neutrality, and evaporated to dryness. Half of the sample was taken and was resuspended in 1 ml ethyl acetate containing 20 μg ADAM reagent, and was left in the dark for 2 h (38). The solvent was then evaporated and the residue was acetylated with a solution of pyridine/acetic anhydride (3/1, v/v) during 16 h at 23°. The reagents were evaporated to dryness and the residue was resuspended in acetonitrile/water for HPLC analysis. In experiments where the conversion of tritiated PGH2 was to be monitored, the procedure described above was repeated with tritiated PGH2 instead of unlabeled PGH2. After extraction of the sample as described above, the radiolabeled compounds were analyzed by TLC. Dose response curves for varying amounts of test compounds were generated and the data expressed as % inhibition of collagen-induced platelet aggregation. Each point was investigated 5 times and statistical analysis of the data was carried out using Macintosh Statview statistical software.

TxB2 formation = assay: metabolism of [3H]-PGH2 to TxB2 by human platelets, TLC; type: cell-based; details: two doses of PBT-3, TLC profile
Experimental: as §1, with “The solvent was then evaporated and the residue was acetylated with a solution of pyridine/acetic anhydride (3/1, v/v) during 16 h at 23°. The reagents were evaporated to dryness and the residue was resuspended in acetonitrile/water for HPLC analysis.” left out, “Each point was investigated 5 times and statistical analysis of the data was carried out using Macintosh Statview statistical software.” left out

CCCCC/C=C\CC1CC1[C@@H](O)/C=C\C/C=C\CCCC(=O)OC (stereo partly drawn) [PBT-3, 10(S)-hydroxy-11,12-cyclopropyl-eicosa-5Z,8Z,14Z-trienoic acid methyl ester]
COX-1 enzyme activity (% of control values, mean ± SD) (COX-1; PBT-3 3.00 μM): 119.6 ± 14^NS % of control | COX-1 enzyme activity (% of control values, mean ± SD) (COX-1; PBT-3 30.0 μM): 116.8 ± 11^NS % of control | inhibition of COX-1, in words (COX-1; relatively large amounts of PBT-3, about 3-4 log doses greater than required to inhibit the TP receptor): Neither COX-1, COX-2,12-LOX nor Plase A2 was inhibited | IC50 (TP receptor [1]): 60 nM | effect on U46619-induced aggregation in aspirin-treated platelets (TP receptor [2]; PBT-3 added after aspirin, before U46619): blockade of the aggregation | IC50 (TP receptor [2]; U46619 10 ng/0.5 ml, read-out: IC50 for inhibition of aggregation evoked by U46619): 700 nM | inhibition of aggregation evoked by U46619 (TP receptor [2]; dose of 1 μg): inhibited the aggregation | inhibition of formation of tritiated TxB2 from [3H]-PGH2 (TxB2 formation): inhibitory action
